Laboratory results reported in patent US4367339A, “Substituted N-nitroaniline compounds and inorganic and organic salts thereof useful for enhancing auxiliary branching, canopy flowering and crop yield of plant and as lodging inhibitors therefor” (priority 1980, dated 1983).
Where a name gives a salt, the structure may show the parent alone.

What was measured:
[1] = tested on: soybeans (Glycine max) Adelphia variety; assay: Increasing axillary branching and improving the canopy of broad leaf plants (soybeans); type: in vivo, soybean (Glycine max); details: three weeks after treatment
Source text: In these tests seedling soybean plants approximately three weeks old, and grown in plastic pots to the 2nd to 3rd trifoliate stage, are sprayed with solutions or dispersions of test compound prepared as described in Example 7 above. The same spraying apparatus, described in Example 7 above, is used and after spraying the plants are placed on greenhouse benches and watered and fertilized. Three weeks after treatment the plants are examined to determine what effect the application of test compound has had on the axillary branching and canopy development of the treated plants.
Increased axillary branching and improved canopy are biological responses which are highly advantageous in the growing of ornamental plants. These responses also have advantage in many crops since increased branching may result in the greater production of fruit, while improved canopy tends to shade and suppress the growth of undesirable weeds that compete with the crops for sunlight, water and plant nutrients. Data obtained are reported in table VII below where axillary branching and canopy are reported as percent increase over untreated controls.

[2] = tested on: soybean (Glycine max) Adelphia; assay: Dwarfing and stem stiffening of soybeans (plant height, greenhouse, foliar spray); type: in vivo; details: three weeks after spraying
Procedure: In the following tests, test compounds are dissolved or dispersed in acetone-water (1:1) mixtures at the final concentration corresponding to the kg/ha rates indicated in the table below. The solution also contains 0.25% v/v colloidal BIOFILM® (a product of Colloidal Products Corp.) which is a mixture of alkyl aryl polyethoxyethanol, free and combined fatty acids, glycol ethers, dialkylbenzene carboxylate and 2-propanol.
The plant species used in these tests are barley (Hordeum vulgare), (Mexico) and soybean (Glycine max)Adelphia.
The solution or dispersion of the compound under test is sprayed at a rate of 747 l/ha with a moving nozzle along an overhead stationary track. The spray nozzle moves at a constant speed over the plants.
The plants are grown in plastic pots, and are well established at the time of treatment. The seedlings of barley are 10 to 20 cm in height, while the seedlings of soybeans are at the second to third trifoliate stage. Plants are watered prior to treatment and then sprayed to provide the kg/ha rate of test compound desired. After spraying the plants are placed on greenhouse benches and watered and fertilized in accordance with normal greenhouse procedures.
Three weeks after spraying the plants are measured and harvested. Harvesting is done at the boot stage. All treatments are replicated six times and comparisons are made against untreated controls. Data obtained are reported in Table VI below as percent reduction in plant height over untreated controls.

[3] = tested on: barley (Hordeum vulgare, var. Georgie); assay: Antilodging effects on barley; type: in vivo; set-up: key to Tiller formation / Stem stiffness: 5 = no increase over controls, 3 = moderate significant increase; details: for Stem stiffness / Tiller formation: control 5; for Weight Dry: control 5.2; for Weight Fresh: control 49.1; for Height: control 53.1; for Phytotoxicity: three weeks after spraying
Procedure: In this experiment the procedure of Example 7 is repeated excepting that the crop used was barley (Hordeum vulgare, var. Georgie; European lodging prone variety). The plants are treated at the 3-4 leaf stage. Plants are watered prior to treatment and then sprayed to provide the kg/ha rate of test compound desired. After spraying the plants are placed on greenhouse benches and watered and fertilized in accordance with normal greenhouse procedures.
Three weeks after spraying the plants are measured and harvested. All treatments are replicated six times and companions are made against untreated controls.
The following rating system is used:
5=No increase over controls
3=Moderate, significant increase over controls.

Compound: O=[N+]([O-])Nc1c(Br)cc(Br)cc1Br [Benzyltriethylammonium salt with 2,4,6-tribromo-N--aci-nitro] [Benzyltriethylammonium salt with 2,4,6-tribromo-N--aci-nitroaniline]
- % Increase in Plant Canopy over untreated controls ([1]; rate 0.125 kg/ha): normal
- % Increase in axillary branching over untreated controls ([1]; rate 0.125 kg/ha): normal
- % Increase in axillary branching over untreated controls ([1]; rate 0.25 kg/ha): normal
- % Reduction in Plant Height over untreated controls ([2]; rate 0.125 kg/ha): > 25%
- % Reduction in Plant Height over untreated controls ([2]; rate 0.25 kg/ha): > 35%
- % Reduction in Plant Height over untreated controls ([2]; rate 0.5 kg/ha): > 50%

Compound: Cc1cc(C)c([N-][N+](=O)[O-])c(C)c1.Cn1c(-c2ccccc2)cc(-c2ccccc2)[n+]1C [1,2-Dimethyl-3,5-diphenylpyrazolium salt with 2,4,6-Trimethyl-N--aci-nitroaniline]
- % Increase in Plant Canopy over untreated controls ([1]; rate 0.125 kg/ha): normal
- % Increase in axillary branching over untreated controls ([1]; rate 0.125 kg/ha): normal
- % Reduction in Plant Height over untreated controls ([2]; rate 0.125 kg/ha): slight increase
- % Reduction in Plant Height over untreated controls ([2]; rate 0.25 kg/ha): > 5%
- % Reduction in Plant Height over untreated controls ([2]; rate 0.5 kg/ha): > 10%

Compound: Cn1c(-c2ccccc2)cc(-c2ccccc2)[n+]1C.O=[N+]([O-])[N-]c1c(Br)cc(Cl)cc1Br [1,2-Dimethyl-3,5-diphenylpyrazolium salt with 2,6-dibromo-4-chloro-N--aci-nitroaniline]
- % Increase in Plant Canopy over untreated controls ([1]; rate 0.125 kg/ha): normal
- % Reduction in Plant Height over untreated controls ([2]; rate 0.125 kg/ha): > 25%
- % Reduction in Plant Height over untreated controls ([2]; rate 0.25 kg/ha): > 30%
- % Reduction in Plant Height over untreated controls ([2]; rate 0.5 kg/ha): > 40%

Compound: O=[N+]([O-])Nc1c(Br)cc(Br)cc1Br [2,4,6-Tribromo-N--nitroaniline, Calcium salt]
- % Increase in Plant Canopy over untreated controls ([1]; rate 0.25 kg/ha, listed as 2,4,6-Tribromo-N--aci-nitroaniline calcium salt (2:1), Calcium salt): slight reduction
- % Increase in Plant Canopy over untreated controls ([1]; rate 0.5 kg/ha, listed as 2,4,6-Tribromo-N--aci-nitroaniline calcium salt (2:1), Calcium salt): moderate reduction

Compound: 3-(p-Fluorophenyl)-1,2-dimethyl-3,5-diphenylpyrazolium salt with 2,4,6-tribromo-N--aci-nitroaniline
- % Increase in Plant Canopy over untreated controls ([1]; rate 0.125 kg/ha): normal
- % Increase in axillary branching over untreated controls ([1]; rate 0.125 kg/ha): normal
- % Increase in axillary branching over untreated controls ([1]; rate 0.5 kg/ha): normal

Compound: O=[N+]([O-])Nc1c(Br)cc(Br)cc1Br [2,4,6-Tribromo-N--nitroaniline, triethylamine (1:1)salt]
- % Increase in axillary branching over untreated controls ([1]; rate 0.125 kg/ha): normal
- % Increase in Plant Canopy over untreated controls ([1]; rate 0.25 kg/ha): slight reduction
- % Increase in Plant Canopy over untreated controls ([1]; rate 0.5 kg/ha): slight reduction

Compound: Cn1c(-c2ccccc2)cc(C2CCCCC2)[n+]1C.O=[N+]([O-])[N-]c1c(Br)cc(Br)cc1Br [3-Cyclohexyl-1,2-dimethyl-5-phenylpyrazolium salt with 2,4,6-tribromo-N--aci-nitroaniline]
- % Increase in Plant Canopy over untreated controls ([1]; rate 0.5 kg/ha): slight reduction
- % Reduction in Plant Height over untreated controls ([2]; rate 0.125 kg/ha): > 10%
- % Reduction in Plant Height over untreated controls ([2]; rate 0.25 kg/ha): > 20%
- % Reduction in Plant Height over untreated controls ([2]; rate 0.5 kg/ha): > 40%

Compound: CCCC[P+](CCCC)(CCCC)Cc1ccc(Cl)cc1Cl.O=[N+]([O-])[N-]c1c(Br)cc(Br)cc1Br [Tributyl(2,4-dichlorobenzyl) phosphonium salt with 2,4,6-tribromo-N--aci-nitroaniline]
- % Increase in Plant Canopy over untreated controls ([1]; rate 0.125 kg/ha): normal
- % Increase in axillary branching over untreated controls ([1]; rate 0.125 kg/ha): normal
- % Increase in Plant Canopy over untreated controls ([1]; rate 0.5 kg/ha): moderate reduction

Compound: O=[N+]([O-])Nc1c(Br)cc(Br)cc1Br [2,4,6-Tribromo-N--nitroaniline, magnesium salt]
- % Increase in Plant Canopy over untreated controls ([1]; rate 0.25 kg/ha, listed as 2,4,6-Tribromo-N--aci-nitroaniline, magnesium salt (2:1)): moderate reduction
- % Increase in Plant Canopy over untreated controls ([1]; rate 0.5 kg/ha, listed as 2,4,6-Tribromo-N--aci-nitroaniline, magnesium salt (2:1)): moderate reduction

Compound: Cn1c(-c2ccccc2)cc(-c2ccccc2)[n+]1C.O=[N+]([O-])[N-]c1c(Cl)cc(Cl)cc1Cl [1,2-Dimethyl-3,5-diphenylpyrazolium salt with 2,4,6-trichloro-N--aci-nitroaniline]
- % Reduction in Plant Height over untreated controls ([2]; rate 0.125 kg/ha): > 10%
- % Reduction in Plant Height over untreated controls ([2]; rate 0.25 kg/ha): > 15%
- % Reduction in Plant Height over untreated controls ([2]; rate 0.5 kg/ha): > 25%

Compound: O=[N+]([O-])Nc1c(Br)cc(Br)cc1Br [1-Hexadecylpyridinium salt with 2,4,6-tribromo-N-- aci-nitro] [1-Hexadecylpyridinium salt with 2,4,6-tribromo-N-- aci-nitroaniline]
- % Reduction in Plant Height over untreated controls ([2]; rate 0.125 kg/ha): > 35%
- % Reduction in Plant Height over untreated controls ([2]; rate 0.25 kg/ha): > 35%
- % Reduction in Plant Height over untreated controls ([2]; rate 0.5 kg/ha): > 50%

Compound: Tributyl(2,4-dichlorobenzyl)phosphonium salt with aniline
- % Reduction in Plant Height over untreated controls ([2]; rate 0.125 kg/ha): > 8%
- % Reduction in Plant Height over untreated controls ([2]; rate 0.25 kg/ha): > 25%
- % Reduction in Plant Height over untreated controls ([2]; rate 0.5 kg/ha): > 50%

Compound: O=[N+]([O-])Nc1ccc(Br)cc1Br [2,4-Dibromo-N--nitroaniline]
- Stem stiffness ([3]; rate 0.25 kg/ha): 3 (Moderate, significant increase over controls.)
- Tiller formation ([3]; rate 0.25 kg/ha): 4
- Weight Dry ([3]; rate 0.25 kg/ha): 7.8 g
- Weight Fresh ([3]; rate 0.25 kg/ha): 63.5 g
- Height ([3]; rate 0.25 kg/ha): 54.7 cm
- Phytotoxicity ([3]; rate 0.25 kg/ha): 5 (No increase over controls)
- Stem stiffness ([3]; rate 0.5 kg/ha): 5 (No increase over controls)
- Tiller formation ([3]; rate 0.5 kg/ha): 5 (No increase over controls)
- Weight Dry ([3]; rate 0.5 kg/ha): 6.7 g
- Weight Fresh ([3]; rate 0.5 kg/ha): 56.3 g
- Height ([3]; rate 0.5 kg/ha): 56.0 cm
- Phytotoxicity ([3]; rate 0.5 kg/ha): 5 (No increase over controls)
- Stem stiffness ([3]; rate 1.0 kg/ha): 5 (No increase over controls)
- Tiller formation ([3]; rate 1.0 kg/ha): 5 (No increase over controls)
- Weight Fresh ([3]; rate 1.0 kg/ha): 46.4 g
- Height ([3]; rate 1.0 kg/ha): 53.3 cm
- Phytotoxicity ([3]; rate 1.0 kg/ha): 5 (No increase over controls)

Compound: O=[N+]([O-])Nc1c(Br)cc(Br)cc1Br [Dodecylamine with 2,4,6-tribromo-N--nitroaniline]
- % Reduction in Plant Height over untreated controls ([2]; rate 0.125 kg/ha): > 15%
- % Reduction in Plant Height over untreated controls ([2]; rate 0.25 kg/ha): > 25%
- % Reduction in Plant Height over untreated controls ([2]; rate 0.5 kg/ha): > 35%

Compound: 1,2-Dimethyl-3,5-diphenylpyrazolium salt with 2,6-dibromo-α,α,α-trifluoro-N--aci-nitro-o-toluidine
- % Reduction in Plant Height over untreated controls ([2]; rate 0.125 kg/ha): > 10%
- % Reduction in Plant Height over untreated controls ([2]; rate 0.25 kg/ha): > 15%
- % Reduction in Plant Height over untreated controls ([2]; rate 0.5 kg/ha): > 20%

Compound: O=[N+]([O-])Nc1cccc(Cl)c1Cl [Sodium salt with 2,3-dichloro-N--nitroaniline]
- Stem stiffness ([3]; rate 0.25 kg/ha): 5 (No increase over controls)
- Tiller formation ([3]; rate 0.25 kg/ha): 5 (No increase over controls)
- Weight Dry ([3]; rate 0.25 kg/ha): 8.2 g
- Weight Fresh ([3]; rate 0.25 kg/ha): 60.9 g
- Height ([3]; rate 0.25 kg/ha): 53.3 cm
- Phytotoxicity ([3]; rate 0.25 kg/ha): 5 (No increase over controls)
- Stem stiffness ([3]; rate 0.5 kg/ha): 5 (No increase over controls)
- Tiller formation ([3]; rate 0.5 kg/ha): 5 (No increase over controls)
- Weight Dry ([3]; rate 0.5 kg/ha): 7.1 g
- Weight Fresh ([3]; rate 0.5 kg/ha): 58.7 g
- Height ([3]; rate 0.5 kg/ha): 53.8 cm
- Phytotoxicity ([3]; rate 0.5 kg/ha): 5 (No increase over controls)
- Stem stiffness ([3]; rate 1.0 kg/ha): 5 (No increase over controls)
- Tiller formation ([3]; rate 1.0 kg/ha): 5 (No increase over controls)
- Weight Dry ([3]; rate 1.0 kg/ha): 6.0 g
- Weight Fresh ([3]; rate 1.0 kg/ha): 57.5 g
- Height ([3]; rate 1.0 kg/ha): 52.2 cm
- Phytotoxicity ([3]; rate 1.0 kg/ha): 5 (No increase over controls)

Compound: O=[N+]([O-])Nc1c(Br)cc(Br)cc1Br [2,4,6-Tribromo-N--nitroaniline, diisopropylamine (1:1)salt]
- % Increase in Plant Canopy over untreated controls ([1]; rate 0.5 kg/ha): slight reduction

Compound: O=[N+]([O-])Nc1c(Br)cc(Br)cc1Br [1-Hexadecylpyridinium salt with 2,4,6-tribromo-N--aci-nitroa]
- % Increase in Plant Canopy over untreated controls ([1]; rate 0.125 kg/ha): normal
- % Increase in axillary branching over untreated controls ([1]; rate 0.125 kg/ha): normal
- % Increase in axillary branching over untreated controls ([1]; rate 0.25 kg/ha): normal
- % Increase in axillary branching over untreated controls ([1]; rate 0.5 kg/ha): normal

Compound: O=[N+]([O-])Nc1c(Br)cc(Br)cc1Br [Dibenzylamine(1:1)with 2,4,6-tribromo-N--nitroaniline]
- % Reduction in Plant Height over untreated controls ([2]; rate 0.125 kg/ha): > 25%
- % Reduction in Plant Height over untreated controls ([2]; rate 0.25 kg/ha): > 35%
- % Reduction in Plant Height over untreated controls ([2]; rate 0.5 kg/ha): > 50%
